Source: patent US20180148470A1, “CHOLIC ACID DERIVATIVE, AND PREPARATION METHOD AND MEDICAL USE THEREOF” (Jiangsu Hansoh Pharmaceutical Group Co., Ltd., priority 2015, published 2018)
pEC50: −log10 of the molar value.

Assays:
[1] = biological target: T1, FXR receptor (Homo sapiens, UniProt Q96RI1); experiment: FXR receptor binding activity assay (TR-FRET; GST-FXR-LBD / SRC1 fragment); format: biochemical; conditions: FXR-LBD binding to SRC1 fragment, agonist rate
T1 construct: Prepared 2× GST-labeled FXR-LBD/anti-GST Eu mixture to the required volume, the concentration of GST-FXR-LBD was 6 nM; purchased Life Technology Invitrogen PV4835
T1 sequence (Q96RI1 262-486 limits assumed): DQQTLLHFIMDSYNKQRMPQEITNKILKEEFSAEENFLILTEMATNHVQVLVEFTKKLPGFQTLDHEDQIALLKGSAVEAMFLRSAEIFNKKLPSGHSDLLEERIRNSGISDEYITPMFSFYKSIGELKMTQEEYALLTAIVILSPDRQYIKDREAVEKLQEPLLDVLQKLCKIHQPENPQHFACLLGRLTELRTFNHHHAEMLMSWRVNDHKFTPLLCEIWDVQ
T1 sequence (Q15788 676-700 partner limits assumed): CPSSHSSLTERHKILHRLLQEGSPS
Excerpt: FXR Receptor Binding Activity Assay (Time-Resolved Fluorescence Detection Method TR-FRET Method)
To test the effect of the present compounds on FXR receptor binding, we selected the commercial FXR receptor binding activity assay kit to test the effect of the compounds on FXR and its binding protein fragments (LBD structural domain binds to SRC1 fragment) (kit supplier: Life Technology Invitrogen Catalog: PV4835; cisbio Catalog: 610SAXLA and 61GSTKLA). Specific method was described in the kit instructions. The operation was as follows:
1. Prepared 2× GST-labeled FXR-LBD/anti-GST Eu mixture to the required volume, the concentration of GST-FXR-LBD was 6 nM, Eu was 50 nL/well.
2. Prepared 2× biotin-labeled SRC1/[…] (SA-APC) mixture to the required volume, the concentration of SRC1 was 1000 nM, and […] was 50 nL/well.
3. 2× GST-FXR/Eu and SRC1/SA-APC were mixed in a proportion of 1:1.
4. 20 μL of a mixture of GST-FXR/Eu and SRC1/SA-APC was added to a 384-well plate containing the compounds to be tested.
5. Centrifuged for 1 minute at 1000 rpm; incubated for 180 minutes at room temperature.
6. Time-resolved fluorescence detection: EnVision reader.
(1) the value at 665 nm divided by the value at 615 nm;
(2) calculating the agonist rate
Agonist rate=(X−Min)/(Max−Min)*100% • X represents the 665/615 value for each concentration; • Min represents the 665/615 value without adding compound; • Max represents the 665/615 value of the reference compound.

[2] = biological target: T2, FXR (Homo sapiens, UniProt Q96RI1); experiment: FXR reporter gene expression test (dual luciferase, FXR Gal4 reporter in HepG2 cells); format: cell-based; conditions: HepG2 cells transiently transfected with FXR Gal4 reporter, 18 hours
T2 sequence (Q96RI1 262-486 limits assumed): T1 sequence (Q96RI1 262-486 limits assumed)
Excerpt: FXR Reporter Gene Expression Test
To analyze the effect of testing compounds on FXR-regulated gene expression, we used Promega's dual luciferase assay system (Promega #E1980) to detect the effect of the compounds on the FXR reporter gene in HepG2 hepatoma cell line (ATCC #HB-8065), which was transiently transfected with the FXR Gal4 reporter gene fragment. Specific experimental methods are as follows:
1. HepG2 Cell Culture and Maintenance
Cells were digested and cells with appropriate density were grown in 10 mL complete medium and then cultivated for 24 hours under 37° C., 5% CO2 humidity conditions.
2. Cell planting and transfection. Transfection reagent was Fugene HD (Promega#E231A)
(1) The transfection mixture was prepared according to the following table
(2) The mixture in the tube was vigorously mixed and incubated at room temperature for 15 minutes;
(3) The cells were digested in the culture dish and counted;
(4) The cell suspension was diluted to the desired volume of 600,000/mL (96-well plates 100 μL/well);
(5) The required volume of the transfection mixture was added to the cell suspension, followed by plating at 100 μL/well;
(6) Incubated for 24 hours under 37° C., 5% CO2 humidity conditions.
3. Treatment of the Compound
(1) 10 mM of mother liquor of the compound was prepared and then serially diluted 3 times with DMSO;
(2) 10 μL of compound was added to 90 μL of complete medium (10×);
(3) 5 μL of the solution of the compound (21×) was added to each well;
(4) Incubated for 18 hours under 37° C., 5% CO2 humidity conditions.
The firefly luciferase and the renilla luciferase signal (Promega #E1980) were detected by Promega's dual-luciferase assay system.
(2) Calculating the agonist rate
Agonist rate=(X−Min)/(Max−Min)*100% • X represents the F/R value of each concentration; • Min represents the F/R value without adding compound; • Max represents the F/R value of the reference compound.
(3) EC50 was calculated according to GraphPrism 5.0

SMILES | pEC50 [1] | pEC50 [2]
C[C@H](CC1SC(=O)NC1=O)C1CCC2C3C(CC[C@@]21C)[C@@]1(C)CC[C@@H](O)C[C@H]1C[C@H]3O (stereo partly drawn) [Example 15-α, 5-((2R)-2-((3R,5 S,7R,10S,13R)-3,7-dihydroxy-10,13-dimethylhexadecahydro-1H-cyclopenta[a]phenanthrene-17-yl)propyl)thiazolidine-2,4-dione] | 6.84 | 
CC[C@H]1[C@@H](O)C2C3CCC([C@H](C)CCc4noc(=O)[nH]4)[C@@]3(C)CCC2[C@@]2(C)CC[C@@H](O)C[C@@H]12 (stereo partly drawn) [Example 12, 3-((3R)-3-((3R, 5S, 6R, 7R, 10S, 13R)-6-ethyl-3,7-dihydroxy-10,13-dimethylhexadecahydro-1H-cyclopenta[a]phenanthrene-17-yl)butyl)-1,2,4-oxadiazol-5(4H)-one] | 7.28 | 5.87
CC[C@H]1[C@@H](O)C2C3CCC([C@H](C)CCC(=O)NCP(=O)(O)O)[C@@]3(C)CCC2[C@@]2(C)CC[C@@H](O)C[C@@H]12 (stereo partly drawn) [Example 6, (((4R)-4-((3R,5S,6R,7R,10S,13R)-6-ethyl-3,7-dihydroxy-10,13-dimethylhexadecahydro-1H-cyclopenta[a]phenanthrene-17-yl)pentanoylamino)methyl)phosphonic acid] | 5.90 | 
CC[C@H]1[C@@H](O)C2C3CCC([C@H](C)CCC(=O)NCCP(=O)(O)O)[C@@]3(C)CCC2[C@@]2(C)CC[C@@H](O)C[C@@H]12 (stereo partly drawn) [Example 7, (2-((4R)-4-((3R,5 S,6R,7R,10S,13R)-6-ethyl-3,7-dihydroxy-10,13-dimethylhexadecahydro-1H-cyclopenta[a]phenanthrene-17-yl)pentanoylamino)ethyl) phosphonic acid] | 6.26 | 
CC[C@H]1[C@@H](O)C2C3CCC([C@H](C)CCc4n[nH]c(=O)o4)[C@@]3(C)CCC2[C@@]2(C)CC[C@@H](O)C[C@@H]12 (stereo partly drawn) [Example 10, 5-((3R)-3-((3R,5S,6R,7R,10S,13R)-6-ethyl-3,7-dihydroxy-10,13-dimethylhexadecane-1H-cyclopenta[a]phenanthrene-17-yl)butyl)-1,3,4-oxadiazol-2 (3H) -one] | 7.21 | 5.85
CC[C@H]1[C@@H](O)C2C3CCC([C@H](C)CCc4nnc[nH]4)[C@@]3(C)CCC2[C@@]2(C)CC[C@@H](O)C[C@@H]12 (stereo partly drawn) [Example 11, (3R,5S,6R,7R,10S,13R)-17-((R)-4-(4H-1,2,4-triazol-3-yl)butan-2-yl)-6-ethyl-10,13-dimethylhexadecahydro-1H-cyclopenta[a] phenanthrene-3,7-diphenol] | 6.44 | 5.28
CC[C@H]1[C@@H](O)C2C3CCC([C@H](C)CCC(=O)NO)[C@@]3(C)CCC2[C@@]2(C)CC[C@@H](O)C[C@@H]12 (stereo partly drawn) [Example 2, (4R)-4-((3R,5S,6R,7R,10S,13R)-6-ethyl-3,7-dihydroxy-10,13-dimethylhexadecahydro-1H-cyclopenta[a]phenanthrene-17-yl)-N-hydroxypentanamide] | 6.78 | 5.47
CC[C@H]1[C@@H](O)C2C3CCC([C@H](C)CC4SC(=O)NC4=O)[C@@]3(C)CCC2[C@@]2(C)CC[C@@H](O)C[C@@H]12 (single isomer, unassigned) [Example 14-α] | 7.89 | 7.20
CC[C@H]1[C@@H](O)C2C3CCC([C@H](C)CCC(=O)NOCCO)[C@@]3(C)CCC2[C@@]2(C)CC[C@@H](O)C[C@@H]12 (stereo partly drawn) [Example 8, (4R)-4-((3R, 5S, 6R, 7R, 10S, 13R)-6-ethyl-3,7-dihydroxy-10,13-dimethylhexadecahydro-1H-cyclopenta[a]phenanthrene-17-yl)-N-(2-hydroxyethoxy)pentanamide] | 6.64 | 5.47
CC[C@H]1[C@@H](O)C2C3CCC([C@H](C)CCC(=O)NOC)[C@@]3(C)CCC2[C@@]2(C)CC[C@@H](O)C[C@@H]12 (stereo partly drawn) [Example 4, (4R)-4-((3R,5S,6R,7R,10S,13R)-6-ethyl-3,7-dihydroxy-10,13-dimethylhexadecahydro-1H-cyclopenta[a]phenanthrene-17-yl)-N-methoxypentanamide] | 7.27 | 5.97
CC[C@H]1[C@@H](O)C2C3CCC([C@H](C)CCC(=O)NCS(=O)(=O)O)[C@@]3(C)CCC2[C@@]2(C)CC[C@@H](O)C[C@@H]12 (stereo partly drawn) [Example 5, ((4R)-4-((3R,5S,6R,7R,10S,13R)-6-ethyl-3,7-dihydroxy-10,13-dimethylhexadecahydro-1H-cyclopenta[a]phenanthrene-17-yl)pentanoylamino) methanesulfonic acid] | 7.51 | 
CC[C@H]1[C@@H](O)C2C3CCC([C@H](C)CCc4nnc(C(=O)O)o4)[C@@]3(C)CCC2[C@@]2(C)CC[C@@H](O)C[C@@H]12 (stereo partly drawn) [Example 13, 5-((3R)-3-((3R, 5S, 6R, 7R, 10S,13R)-6-ethyl-3,7-dihydroxy-10,13-dimethylhexadecahydro-1H-cyclopenta[a]phenanthrene-17-yl)butyl) -1,3,4-oxadiazole-2-carboxylic acid] | 6.55 | 5.28
C[C@H](CC1SC(=O)NC1=O)C1CCC2C3C(CC[C@@]21C)[C@@]1(C)CC[C@@H](O)C[C@H]1C[C@H]3O (stereo partly drawn) [Example 15-β, 5-((2R)-2-((3R,5 S,7R,10S,13R)-3,7-dihydroxy-10,13-dimethylhexadecahydro-1H-cyclopenta[a]phenanthrene-17-yl)propyl)thiazolidine-2,4-dione] | 6.51 | 5.47
CC[C@H]1[C@@H](O)C2C3CCC([C@H](C)CCC(=O)NC#N)[C@@]3(C)CCC2[C@@]2(C)CC[C@@H](O)C[C@@H]12 (stereo partly drawn) [Example 3, (4R)-N-cyano-4-((3R, 5S, 6R, 7R, 10S, 13R)-6-ethyl-3,7-dihydroxy-10,13-dimethylhexadecahydro-1H-cyclopenta[a]phenanthrene-17-yl)pentanamide] | 7.80 | 5.60
CC[C@@H]1[C@@H]2[C@@H](F)[C@H](O)CC[C@]2(C)C2CC[C@@]3(C)C(CCC3[C@H](C)CCC(=O)O)C2[C@@H]1O (stereo partly drawn) [Example 1, (4R)-4-((3R, 4R, 5S, 6R, 7R, 10R, 13R)-6-ethyl-4-fluoro-3,7-dihydroxy-10,13-dimethylhexadecahydro-1H-cyclopenta[a]phenanthrene-17-yl)pentanoic acid] | 6.67 | 5.59
CCOC(=O)c1nnc(CC[C@@H](C)C2CCC3C4C(CC[C@@]32C)[C@@]2(C)CC[C@@H](O)C[C@H]2[C@@H](CC)[C@H]4O)o1 (stereo partly drawn) [Example 13-ii] | 7.15 | 
